Laboratory results as given in ChEMBL document CHEMBL1201862, “PubChem BioAssay data set” (2004).
Active and inactive are the calls of the source.

Experiments:
[1] = target: T1, Short transient receptor potential channel 4 (Mus musculus, UniProt Q9QUQ5); assay: calcium entry via TRPC4 opening agents – cell-based, HEK293 TRPC4/mu-opioid, Fluo-4 calcium, dose response (AID 434937); assay type: functional
T1 sequence (Q9QUQ5 whole entry): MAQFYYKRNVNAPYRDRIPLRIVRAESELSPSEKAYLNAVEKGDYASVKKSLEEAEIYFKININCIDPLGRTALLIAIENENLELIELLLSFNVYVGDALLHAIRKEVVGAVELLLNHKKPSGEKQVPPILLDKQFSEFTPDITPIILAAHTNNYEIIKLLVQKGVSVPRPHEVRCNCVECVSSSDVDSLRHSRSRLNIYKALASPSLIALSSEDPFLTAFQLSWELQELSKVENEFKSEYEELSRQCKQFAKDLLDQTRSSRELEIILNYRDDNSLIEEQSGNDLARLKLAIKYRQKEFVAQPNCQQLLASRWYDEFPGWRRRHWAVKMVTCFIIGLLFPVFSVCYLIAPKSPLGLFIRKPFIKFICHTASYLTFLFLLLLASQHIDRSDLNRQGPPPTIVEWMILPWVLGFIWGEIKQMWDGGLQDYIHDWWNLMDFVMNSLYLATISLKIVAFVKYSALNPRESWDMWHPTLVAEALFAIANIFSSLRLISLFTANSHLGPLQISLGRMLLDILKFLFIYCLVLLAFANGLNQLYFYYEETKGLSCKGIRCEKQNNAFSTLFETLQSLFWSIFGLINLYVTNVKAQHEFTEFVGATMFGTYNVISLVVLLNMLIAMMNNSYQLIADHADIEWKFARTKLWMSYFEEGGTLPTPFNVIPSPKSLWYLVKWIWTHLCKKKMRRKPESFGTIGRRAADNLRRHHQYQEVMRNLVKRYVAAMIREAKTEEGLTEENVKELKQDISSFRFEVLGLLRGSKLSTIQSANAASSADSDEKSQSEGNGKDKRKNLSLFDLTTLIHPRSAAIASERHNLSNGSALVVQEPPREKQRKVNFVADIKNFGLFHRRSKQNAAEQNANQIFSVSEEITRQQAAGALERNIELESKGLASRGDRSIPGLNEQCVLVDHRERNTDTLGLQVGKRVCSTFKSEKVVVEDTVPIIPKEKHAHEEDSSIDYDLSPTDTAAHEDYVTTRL

Cytochrome P450 2C9 = Cytochrome P450 2C9 (Homo sapiens, UniProt P11712)
Cytochrome P450 2D6 = Cytochrome P450 2D6 (Homo sapiens, UniProt P10635);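 note: CYP2D6 member of a cytochrome P450 panel assay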
H4 = assay: Luminescence Cell-Based Dose Response HTS to Identify Activators of 5'UTR Stem-Loop Driven Prion Protein mRNA Translation in H4 Neuroglioblastoma Cells. [Related pubchem assays: 1829 (Project Summary), 1814 (Primary HTS)]; assay type: functional; conditions: Homo sapiens
[2] = Luminescence Cell-Based Dose Confirmation HTS to Identify Activators of 5'UTR Stem-Loop Driven Alpha-Synuclein mRNA Translation in H4 Neuroglioblastoma Cells. [Related pubchem assays: 1829 (Project Summary), 1814 (Primary HTS)]; assay type: functional
[3] = Luminescence Cell-Based Dose Response HTS to Identify Activators of Luciferase Translation or Activity in H4 […] Cells. [Related pubchem assays: 1829 (Project Summary), 1814 (Primary HTS)]; assay type: functional
Cytochrome P450 3A4 = Cytochrome P450 3A4 (Homo sapiens, UniProt P08684);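 note: CYP3A4 tested as one member of a cytochrome P450 panel screen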
Cytochrome P450 2C19 = Cytochrome P450 2C19 (Homo sapiens, UniProt P33261); assay: Cytochrome panel assay with activity outcomes. Panel member name: p450-cyp2c19 Compounds with AC50 equal or less than 10 uM are considered active; assay type: functional; conditions: read-out: AC50
Vero = assay: cells; assay type: functional; conditions: Chlorocebus sabaeus
[4] = target: T1, Short transient receptor potential channel 4; assay: block of DAMGO-driven TRPC4 calcium entry – cell-based, HEK293 TRPC4/mu-opioid, Fluo-4 calcium, dose response (AID 434942); assay type: functional;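 note: potency of inhibitors blocking the TRPC4 calcium response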
Fatty acid synthase [5] = target: T2, Fatty acid synthase (Homo sapiens, UniProt P49327); assay: inhibition of human FAS-TE enzyme activity – biochemical, endpoint fluorescence intensity, uHTS hits, dose response (AID 624327); assay type: functional;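 note: fluorescence from hydrolysis of an O-methyl fluorescein acyl ester substrate by the enzyme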
H9c2 = assay: cells; assay type: functional, cell-based; conditions: Rattus norvegicus, H9c2, Myocardium;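 note: confirmatory concentration-response retest of ultra-high-throughput screening hits for modulation of myocardial damage; cell death induced by hydrogen peroxide oxidative stress; compound pretreatment for 60 min then peroxide exposure for 2 h; potency is for protecting the cells against peroxide damage rather than for killing them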
Fatty acid synthase [6] = target: T2, Fatty acid synthase; assay: inhibition of human FAS-TE enzyme activity – biochemical, kinetic fluorescence intensity, dose response (AID 624326); assay type: functional;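 note: rate of fluorescence rise from hydrolysis of a fluorogenic O-methyl fluorescein ester substrate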
[7] = cAMP pathway inhibition in counterscreen cell line – TR-FRET cAMP detection, counter-screen for MC4R biased antagonist project, dose response (AID 602305); assay type: functional, cell-based;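 note: U2OS cells stimulated with forskolin near its EC80 as the cAMP inducer; potency is for inhibition of forskolin-stimulated cAMP signaling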
Melanocortin receptor 4 = Melanocortin receptor 4 (Homo sapiens, UniProt P32245); assay: inhibitors of MC4R cAMP signaling – cell-based, TR-FRET, biased antagonists, dose response (AID 602298); assay type: functional;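 note: antagonist potency against agonist-stimulated cAMP production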
Sequence of Melanocortin receptor 4 (P32245 whole entry): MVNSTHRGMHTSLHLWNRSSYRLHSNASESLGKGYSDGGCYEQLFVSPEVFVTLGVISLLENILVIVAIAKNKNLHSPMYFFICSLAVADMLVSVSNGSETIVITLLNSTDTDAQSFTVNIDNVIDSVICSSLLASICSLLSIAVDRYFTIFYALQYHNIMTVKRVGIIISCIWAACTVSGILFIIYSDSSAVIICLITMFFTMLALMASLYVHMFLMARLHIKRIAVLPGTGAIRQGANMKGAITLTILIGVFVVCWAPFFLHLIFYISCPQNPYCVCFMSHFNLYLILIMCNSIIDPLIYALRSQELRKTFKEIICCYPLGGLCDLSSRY

Sequence of Cytochrome P450 2C9 (P11712 whole entry): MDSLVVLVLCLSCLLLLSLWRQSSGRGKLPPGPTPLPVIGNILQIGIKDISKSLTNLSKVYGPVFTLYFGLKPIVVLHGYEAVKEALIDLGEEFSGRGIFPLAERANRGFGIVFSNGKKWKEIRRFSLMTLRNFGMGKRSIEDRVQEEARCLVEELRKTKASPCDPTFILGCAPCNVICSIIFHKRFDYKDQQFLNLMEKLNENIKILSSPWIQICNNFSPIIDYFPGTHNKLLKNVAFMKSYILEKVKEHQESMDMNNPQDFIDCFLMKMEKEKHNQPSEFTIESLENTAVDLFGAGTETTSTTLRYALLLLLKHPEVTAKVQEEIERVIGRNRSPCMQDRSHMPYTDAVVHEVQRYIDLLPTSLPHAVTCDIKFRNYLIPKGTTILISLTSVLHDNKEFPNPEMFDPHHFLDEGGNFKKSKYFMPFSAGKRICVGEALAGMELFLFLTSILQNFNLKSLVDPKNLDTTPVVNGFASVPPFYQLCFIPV
T2 sequence (P49327 whole entry): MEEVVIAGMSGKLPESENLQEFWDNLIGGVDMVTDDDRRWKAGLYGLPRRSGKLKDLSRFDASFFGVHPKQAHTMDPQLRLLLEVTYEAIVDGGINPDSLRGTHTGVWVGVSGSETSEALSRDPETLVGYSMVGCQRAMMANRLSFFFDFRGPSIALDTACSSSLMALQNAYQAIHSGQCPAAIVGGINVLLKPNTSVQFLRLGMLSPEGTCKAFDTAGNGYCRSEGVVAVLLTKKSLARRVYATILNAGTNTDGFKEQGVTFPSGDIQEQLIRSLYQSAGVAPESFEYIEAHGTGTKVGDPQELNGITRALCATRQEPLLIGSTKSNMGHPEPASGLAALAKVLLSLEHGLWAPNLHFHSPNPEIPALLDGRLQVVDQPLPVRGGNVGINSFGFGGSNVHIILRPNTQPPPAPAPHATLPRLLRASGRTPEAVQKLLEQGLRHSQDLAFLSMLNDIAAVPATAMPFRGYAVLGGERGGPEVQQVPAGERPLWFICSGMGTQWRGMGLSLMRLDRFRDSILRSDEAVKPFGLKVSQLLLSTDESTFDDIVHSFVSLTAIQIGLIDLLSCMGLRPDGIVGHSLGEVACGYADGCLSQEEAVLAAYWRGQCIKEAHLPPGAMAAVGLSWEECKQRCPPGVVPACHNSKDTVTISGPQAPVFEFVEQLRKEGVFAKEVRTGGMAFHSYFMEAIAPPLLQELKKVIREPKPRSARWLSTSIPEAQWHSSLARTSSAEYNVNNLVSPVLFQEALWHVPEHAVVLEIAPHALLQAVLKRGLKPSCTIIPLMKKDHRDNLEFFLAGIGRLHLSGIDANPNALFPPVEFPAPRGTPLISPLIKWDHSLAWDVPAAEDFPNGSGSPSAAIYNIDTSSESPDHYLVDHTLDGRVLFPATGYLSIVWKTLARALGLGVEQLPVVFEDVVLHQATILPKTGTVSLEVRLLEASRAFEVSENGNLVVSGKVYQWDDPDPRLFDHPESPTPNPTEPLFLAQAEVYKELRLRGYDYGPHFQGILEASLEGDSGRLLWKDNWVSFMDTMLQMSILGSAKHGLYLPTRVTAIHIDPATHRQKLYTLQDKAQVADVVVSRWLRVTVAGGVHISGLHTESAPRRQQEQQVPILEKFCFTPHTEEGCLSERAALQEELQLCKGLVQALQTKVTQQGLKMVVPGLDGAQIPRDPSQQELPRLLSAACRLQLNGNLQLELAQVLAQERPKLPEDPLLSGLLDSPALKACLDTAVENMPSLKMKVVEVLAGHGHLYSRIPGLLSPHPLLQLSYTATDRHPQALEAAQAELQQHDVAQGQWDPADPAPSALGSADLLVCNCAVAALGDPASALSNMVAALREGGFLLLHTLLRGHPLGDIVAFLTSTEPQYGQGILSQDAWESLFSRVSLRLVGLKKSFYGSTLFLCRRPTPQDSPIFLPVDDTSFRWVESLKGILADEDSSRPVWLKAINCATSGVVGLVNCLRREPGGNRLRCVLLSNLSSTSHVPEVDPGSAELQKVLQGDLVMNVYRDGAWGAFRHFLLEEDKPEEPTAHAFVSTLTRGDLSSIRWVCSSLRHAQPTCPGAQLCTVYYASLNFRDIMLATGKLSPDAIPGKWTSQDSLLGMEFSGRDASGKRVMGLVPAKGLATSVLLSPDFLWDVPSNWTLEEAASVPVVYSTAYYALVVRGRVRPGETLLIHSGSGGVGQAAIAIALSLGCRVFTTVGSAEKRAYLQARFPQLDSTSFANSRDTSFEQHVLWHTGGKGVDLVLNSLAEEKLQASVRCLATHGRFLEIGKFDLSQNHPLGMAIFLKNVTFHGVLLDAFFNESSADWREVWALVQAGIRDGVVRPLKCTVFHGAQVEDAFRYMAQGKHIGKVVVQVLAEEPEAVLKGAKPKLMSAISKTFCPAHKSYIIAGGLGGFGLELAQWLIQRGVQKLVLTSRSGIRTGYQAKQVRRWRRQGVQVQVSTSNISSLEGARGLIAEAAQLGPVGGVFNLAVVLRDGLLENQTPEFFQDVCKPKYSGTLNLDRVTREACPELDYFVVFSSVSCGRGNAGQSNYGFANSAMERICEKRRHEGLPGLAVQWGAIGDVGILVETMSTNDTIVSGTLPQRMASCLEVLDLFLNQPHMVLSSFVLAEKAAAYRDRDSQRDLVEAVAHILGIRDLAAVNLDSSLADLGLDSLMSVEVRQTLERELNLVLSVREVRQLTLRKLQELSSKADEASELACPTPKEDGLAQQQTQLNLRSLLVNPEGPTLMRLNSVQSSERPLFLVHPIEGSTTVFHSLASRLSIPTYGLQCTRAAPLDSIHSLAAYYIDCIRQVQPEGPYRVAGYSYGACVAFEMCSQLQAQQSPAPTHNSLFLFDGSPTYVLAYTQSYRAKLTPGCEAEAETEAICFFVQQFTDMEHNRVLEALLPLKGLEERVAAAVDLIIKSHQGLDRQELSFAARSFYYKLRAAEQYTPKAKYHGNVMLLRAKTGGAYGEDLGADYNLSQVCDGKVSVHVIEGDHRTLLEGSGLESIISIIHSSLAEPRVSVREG
Sequence of Cytochrome P450 3A4 (P08684 whole entry): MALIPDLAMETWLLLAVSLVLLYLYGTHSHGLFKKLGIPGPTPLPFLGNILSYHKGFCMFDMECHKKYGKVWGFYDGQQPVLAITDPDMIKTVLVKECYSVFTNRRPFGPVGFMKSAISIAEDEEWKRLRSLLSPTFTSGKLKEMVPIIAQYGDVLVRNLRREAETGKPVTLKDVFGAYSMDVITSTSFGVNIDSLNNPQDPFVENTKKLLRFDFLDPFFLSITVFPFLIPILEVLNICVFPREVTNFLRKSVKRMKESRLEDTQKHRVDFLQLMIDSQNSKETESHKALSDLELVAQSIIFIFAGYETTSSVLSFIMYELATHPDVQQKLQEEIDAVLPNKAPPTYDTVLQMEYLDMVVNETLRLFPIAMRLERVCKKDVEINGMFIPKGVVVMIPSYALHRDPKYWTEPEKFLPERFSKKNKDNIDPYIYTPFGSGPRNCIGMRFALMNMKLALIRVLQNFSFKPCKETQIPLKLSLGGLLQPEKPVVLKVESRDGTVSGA
Sequence of Cytochrome P450 2C19 (P33261 whole entry): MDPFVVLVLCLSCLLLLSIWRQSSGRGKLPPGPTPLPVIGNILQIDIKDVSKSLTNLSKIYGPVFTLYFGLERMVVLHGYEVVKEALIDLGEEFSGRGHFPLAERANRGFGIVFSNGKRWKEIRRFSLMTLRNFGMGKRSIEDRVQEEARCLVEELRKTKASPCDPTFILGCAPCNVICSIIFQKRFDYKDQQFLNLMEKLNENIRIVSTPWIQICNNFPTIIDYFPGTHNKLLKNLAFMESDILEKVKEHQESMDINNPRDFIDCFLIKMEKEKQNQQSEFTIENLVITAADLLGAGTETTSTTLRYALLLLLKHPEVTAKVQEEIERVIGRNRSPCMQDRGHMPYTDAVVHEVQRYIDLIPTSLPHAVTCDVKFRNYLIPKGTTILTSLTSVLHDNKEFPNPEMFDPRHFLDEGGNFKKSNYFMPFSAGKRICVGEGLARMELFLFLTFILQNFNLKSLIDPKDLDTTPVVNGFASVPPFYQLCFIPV
Sequence of Cytochrome P450 2D6 (P10635 whole entry): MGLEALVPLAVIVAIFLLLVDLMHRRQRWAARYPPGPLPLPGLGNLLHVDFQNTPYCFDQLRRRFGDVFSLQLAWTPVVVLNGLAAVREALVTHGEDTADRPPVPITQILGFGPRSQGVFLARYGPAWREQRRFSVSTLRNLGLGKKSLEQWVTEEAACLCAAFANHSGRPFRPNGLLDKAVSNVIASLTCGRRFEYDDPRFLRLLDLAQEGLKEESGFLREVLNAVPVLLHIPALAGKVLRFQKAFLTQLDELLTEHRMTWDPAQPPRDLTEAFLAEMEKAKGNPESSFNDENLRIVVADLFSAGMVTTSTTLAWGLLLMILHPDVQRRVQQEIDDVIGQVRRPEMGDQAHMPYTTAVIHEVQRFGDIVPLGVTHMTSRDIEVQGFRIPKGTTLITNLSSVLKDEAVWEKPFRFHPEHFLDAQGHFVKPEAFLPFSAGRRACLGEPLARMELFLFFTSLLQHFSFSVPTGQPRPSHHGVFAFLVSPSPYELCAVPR

In the case of `Cc1sc2ncnc(NCC(c3ccco3)N(C)C)c2c1C` (stereo not drawn), the EC50 [1] is reported as 0.841 µM (active).
For `FC(F)(F)c1ccccc1-c1nccc(N2CCNCC2)n1`, the AC50 (Cytochrome P450 2C9) was “inconclusive”.
In the case of `COc1ccc(C(=O)c2ccccc2)cc1Br`, the AC50 (Cytochrome P450 2C9) is reported as “inconclusive” and the AC50 (Cytochrome P450 2D6) is reported as 22.4 µM (inconclusive).
With `CCCCN1C(=O)C(=O)N(CC(=O)N2N=C3/C(=C/c4ccco4)CCCC3C2c2ccco2)C1=O` (stereo not drawn) the EC50 (H4) was 19.6 µM (active), the EC50 [2] was > 120 µM (not active) and the EC50 [3] was 14.8 µM (active).
For `N#Cc1nc(-c2ccc(F)cc2)oc1N1CCCC1`, the AC50 (Cytochrome P450 2C9) was “inconclusive”, the AC50 (Cytochrome P450 3A4) was 14.1 µM (inconclusive) and the AC50 (Cytochrome P450 2C19) was 14.1 µM (inconclusive).
For `COc1ccc2cc(C(=O)NCCc3ccccc3)[nH]c2c1`, the EC50 (H4) was 99.5 µM (active), the EC50 [2] was 43.2 µM (active) and the EC50 [3] was 48 µM (active).
With `COc1cc(C(=O)NC(=S)NNC(=O)c2ccc3c(c2)OCO3)cc(OC)c1OC` the CC50 (Vero) was 20.2 µM (active).
For `COc1ccc(C)cc1N(C(=O)c1snc(C(N)=O)c1N)C(C(=O)NC1CCCCC1)c1ccc(C)o1` (stereo not drawn), the EC50 [4] was 0.211 µM (active).
In the case of `COc1ccc(C2=NOC(COc3ccc4c(C)cc(=O)oc4c3)C2)c(OC)c1` (stereo not drawn), the CC50 (Vero) is reported as 7.23 µM (active).
With `Cc1ccc(-c2nnc3ccc(SCC(=O)N4CCCc5ccccc54)nn23)cc1` the IC50 (Fatty acid synthase [5]) was 4.07 µM (active), the IC50 (H9c2) was 38.4 µM (inactive) and the IC50 (Fatty acid synthase [6]) was 5.68 µM (active).
For `Brc1cc2c(cc1COc1ccc(-c3nn[nH]n3)cc1)OCO2`, the EC50 [4] was 5.31 µM (active).
In the case of `COc1cc(OC)c2ccc(=O)oc2c1C(CC(=O)N1CCN(c2ccccc2)CC1)c1ccc2c(c1)OCO2` (stereo not drawn), the IC50 (H9c2) is reported as > 79 µM (inactive).
For `CCN(CC)S(=O)(=O)c1ccc(Cl)c(C(=O)OC2CC(C)OC2=O)c1` (stereo not drawn), the IC50 [7] was > 64.6 µM (inactive) and the IC50 (Melanocortin receptor 4) was > 64.6 µM (inactive).
